Literature values, collected in patent publication US12138350B2, “Method of producing a extruded composition” (Cubic Pharmaceuticals Ltd., priority 2015, dated 2024).

Conditions: Ramukutty and Ramachandran 2014

Temperature up to which stable: about 152 °C
Compound: CC(C)Cc1ccc(C(C)C(=O)O)cc1 (racemic) [Ibuprofen, (RS)-2-(4-(2-methylpropyl)phenyl)propanoic acid]
